Experimental data from patent US7112586B2, “Substituted diamine derivatives useful as motilin antagonists” (Ortho-McNeil Pharmaceutical, Inc., priority 2000, dated 2006).

The compounds below were run against T1, Motilin Receptor (Oryctolagus cuniculus, UniProt G1T803) (assay: Motilin receptor binding, rabbit colon membranes, 125I porcine motilin). Details: rabbit colon membranes.
T1 construct: The muscle tissue was homogenized in 10 volumes of 50 mM Tris-Cl; from tissue; host or cells: rabbit colon smooth muscle, crude membrane homogenate
T1 sequence (G1T803 1-400): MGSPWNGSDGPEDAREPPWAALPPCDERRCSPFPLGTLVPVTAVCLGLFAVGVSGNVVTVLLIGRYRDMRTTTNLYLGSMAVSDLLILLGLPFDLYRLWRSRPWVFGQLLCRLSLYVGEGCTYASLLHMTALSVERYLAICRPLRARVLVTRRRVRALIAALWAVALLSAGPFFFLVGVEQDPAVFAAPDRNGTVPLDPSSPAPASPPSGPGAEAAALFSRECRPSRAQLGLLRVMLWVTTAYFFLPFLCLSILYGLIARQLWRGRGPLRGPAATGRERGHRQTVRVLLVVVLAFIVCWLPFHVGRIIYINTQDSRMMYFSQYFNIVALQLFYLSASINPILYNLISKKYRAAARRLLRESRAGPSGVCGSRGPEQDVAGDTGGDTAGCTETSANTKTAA
Design: Rabbit Colon % Inh / inhibition / % Inh (Rabbit colon): dose or concentration left out as unconfirmed
Method: Rabbit colon was removed, dissected free from the mucosa and serosa, and diced into small pieces. The muscle tissue was homogenized in 10 volumes of 50 mM Tris-Cl, 10 mM MgCl2, 0.1 mg/ml bacitracin, and 0.25 mM Peflabloc, at pH 7.5 in a Polytron (29000 rpm, 4×15 seconds). The homogenate was centrifuged at 1000×g for 15 minutes and the supernatant discarded. The pellet was washed twice before being suspended in homogenizing buffer. The crude homogenate was resuspended through a 23 gauge needle before storing at −80° C. […] After 60 minutes at 30° C., the samples were cooled in ice, centrifuged in the cold at 13000×g for 1 minute. The pellet was washed twice with 1 ml of cold saline, the supernatant was aspirated, and the pellet at the bottom of the tube counted in a gamma counter. Non-specific binding was determined by the inclusion of 1 mM of unlabeled motilin. IC50 values were determined from Kaleidograph curves.

| SMILES | Rabbit Colon % Inh |
| --- | --- |
| COc1cccc(C(=O)N(Cc2ccccc2)C2CCCC(CN(C(=O)Nc3ccccc3)c3cccc(OCCN4CCOCC4)c3)C2)c1 (centres unmarked) [compound 41] | 58% |
| O=C(c1ccc(F)cc1)N(CC1CCCC(N(Cc2cccc(Cl)c2)C(=O)c2ccc(-c3ccccc3)cc2)C1)c1cccc(OCCN2CCOCC2)c1 (centres unmarked) [compound 109] | 27% |
| CN(C)CCOc1ccc(N(Cc2ccc(F)cc2)C(=O)CCCC(=O)N(CCc2ccccc2)Cc2ccccc2)cc1 [compound 194] | 23% |
| O=C(c1ccc(F)cc1)N(CC1CCC(N(Cc2ccccn2)C(=O)C(Cl)(Cl)Cl)CC1)c1cccc(OCCN2CCOCC2)c1 (centres unmarked) [compound 174] | 0% |
| O=C(c1ccc(F)cc1)N(CC1CCCC(N(Cc2ccccc2)C(=O)c2ccc3ccccc3c2)C1)c1cccc(OCCN2CCOCC2)c1 (centres unmarked) [compound 114] | 49% |
| COc1cccc(C(=O)N(Cc2ccccc2)C2CCCC(CN(C(=O)c3ccc(F)cc3)c3cccc(OCCN4CCOCC4)c3)C2)c1 (centres unmarked) [compound 117] | 17% |
| CCN(Cc1ccc(C)cc1)C(=O)CCCCN(C(=O)Nc1ccccc1)c1cccc(OCCN2CCOCC2)c1 [compound 34] | 7% |
| COc1cccc(C(=O)N(Cc2cccc(Cl)c2)C2CCCC(CN(C(=O)Nc3ccccc3)c3cccc(OCCN4CCOCC4)c3)C2)c1 (centres unmarked) [compound 51] | 73% |
| O=C(N[C@@H](Cc1ccccc1)C(=O)N(Cc1ccc(F)cc1)c1cccc(OCCN2CCOCC2)c1)C(c1ccccc1)c1ccccc1 [compound 133] | 6% |
| O=C(NC1CCCC(CN(C(=O)Nc2ccccc2)c2cccc(OCCN3CCOCC3)c2)C1)c1cc(C(F)(F)F)cc(C(F)(F)F)c1 (centres unmarked) [compound 74] | 29% |
| O=C(c1ccc(F)cc1)N(CC1CCCC(N(Cc2ccccc2)C(=O)c2cc(C(F)(F)F)cc(C(F)(F)F)c2)C1)c1cccc(OCCN2CCOCC2)c1 (centres unmarked) [compound 119] | 22% |
| CC(C)(C)C(=O)N(Cc1cccc(Cl)c1)C1CCCC(CN(C(=O)Nc2ccccc2)c2cccc(OCCN3CCOCC3)c2)C1 (centres unmarked) [compound 52] | 45% |
| O=C(Nc1ccccc1)N(CC1CCCC(N(Cc2cccc(Cl)c2)C(=O)CCc2ccccc2)C1)c1cccc(OCCN2CCOCC2)c1 (centres unmarked) [compound 53] | 52% |
| O=C(c1ccc(F)cc1)N(CC1CCCC(N(Cc2cccc(Cl)c2Cl)C(=O)C(Cl)(Cl)Cl)C1)c1cccc(OCCN2CCOCC2)c1 (centres unmarked) [compound 92] | 80% |
| CC(C)(C)C(=O)NC1CCCC(CN(C(=O)Nc2ccccc2)c2cccc(OCCN3CCOCC3)c2)C1 (centres unmarked) [compound 77] | 19% |
| O=C(c1ccc(F)cc1)N(CC1CCCC(N2C(=O)c3ccc4ccc(F)cc4c3C2=O)C1)c1cccc(OCCN2CCOCC2)c1 (centres unmarked) [compound 261] | 0% |
| O=C(NC1CCCC(CN(C(=O)Nc2ccccc2)c2cccc(OCCN3CCOCC3)c2)C1)c1ccc2ccccc2c1 (centres unmarked) [compound 79] | 39% |
| O=C(c1ccc(F)cc1)N(CC1CCCC(N(Cc2cccc(Cl)c2)C(=O)Cc2ccc(F)cc2)C1)c1cccc(OCCN2CCOCC2)c1 (centres unmarked) [compound 249] | 22% |
| O=C(c1ccc(F)cc1)N(CC1CCCC(N(Cc2cccc3ccccc23)C(=O)C(Cl)(Cl)Cl)C1)c1cccc(OCCN2CCOCC2)c1 (centres unmarked) [compound 94] | 28% |
| COc1cccc(C(=O)N(Cc2cccc(Cl)c2)C2CCC(CN(C(=O)Nc3ccccc3)c3cccc(OCCN4CCOCC4)c3)CC2)c1 (centres unmarked) [compound 184] | 6% |
| O=C(c1ccc(F)cc1)N(Cc1cccc(C(=O)N2CCc3ccccc3C2c2ccccc2)c1)c1cccc(OCCN2CCOCC2)c1 (centres unmarked) [compound 142] | 17% |
| O=C(c1ccc(F)cc1)N(CC1CCCC(N(Cc2cccc(Cl)c2)C(=O)c2cc(C(F)(F)F)cc(C(F)(F)F)c2)C1)c1cccc(OCCN2CCOCC2)c1 (centres unmarked) [compound 107] | 29% |

Other lines, results leading:

| Rabbit Colon % Inh | SMILES |
| --- | --- |
| 35% | CC(C)(C)CN(Cc1ccccc1)C(=O)CCCN(C(=O)c1ccc(F)cc1)c1cccc(OCCN2CCOCC2)c1 [compound 145] |
| 0% | CN(Cc1ccccc1)C(=O)CCCN(C(=O)c1ccc(F)cc1)c1cccc(OCCN2CCOCC2)c1 [compound 18] |
| 35% | Cc1ccc(C(=O)N(CCCC(=O)N(CCc2ccccc2)Cc2ccccc2)c2cccc(OCCN3CCOCC3)c2)cc1 [compound 3] |
| 54% | O=C(CCCN(C(=O)c1ccc(F)cc1)c1cccc(OCCN2CCOCC2)c1)N(CCCc1ccccc1)Cc1ccccc1 [compound 144] |
| 0% | CCN(Cc1ccccc1)C(=O)CCCN(C(=O)c1ccc(F)cc1)c1cccc(OCCN2CCOCC2)c1 [compound 11] |
| 27% | O=C(CCCC(=O)N(Cc1ccc(F)cc1)c1ccc(OCCN2CCCC2)cc1)N(CCc1ccccc1)Cc1ccccc1 [compound 191] |
| 21% | CCN(Cc1ccccc1)C(=O)CCCCN(C(=O)c1ccc(C)cc1)c1cccc(OCCN2CCOCC2)c1 [compound 13] |
| 0% | O=C(CCCC(=O)N(Cc1ccc(F)cc1)c1cccc(O)c1)N(CCc1ccccc1)Cc1ccccc1 [compound 175] |
| 8% | O=C(CCc1ccccc1)N[C@@H](Cc1ccccc1)C(=O)N(Cc1ccc(F)cc1)c1cccc(OCCN2CCOCC2)c1 [compound 130] |
| 23% | COc1ccc(CN(C(=O)CCC(=O)N(CCc2ccccc2)Cc2ccccc2)c2cccc(OCCN3CCOCC3)c2)cc1 [compound 166] |
| 23% | Cc1ccc(C(=O)N(CCCC(=O)N(Cc2ccccc2)Cc2ccccc2)c2cccc(OCCN3CCOCC3)c2)cc1 [compound 25] |
| 12% | Cc1ccc(C(=O)N(CCCC(=O)N(C)Cc2ccccc2)c2cccc(OCCN3CCOCC3)c2)cc1 [compound 17] |
| 24% | Cc1ccc(C(=O)N(CCCCC(=O)N(CCc2ccccc2)Cc2ccccc2)c2cccc(OCCN3CCOCC3)c2)cc1 [compound 6] |
| 36% | O=C(CCC(=O)N(Cc1ccc(Cl)cc1)c1cccc(OCCN2CCOCC2)c1)N(CCc1ccccc1)Cc1ccccc1 [compound 168] |
| 42% | O=C(CCCCN(C(=O)c1ccc(F)cc1)c1cccc(OCCN2CCOCC2)c1)N(CCc1ccccc1)Cc1ccccc1 [compound 7] |
| 0% | O=C(CCCN(C(=O)c1ccc(F)cc1)c1cccc(OCCN2CCOCC2)c1)NC(c1ccccc1)c1ccccc1 [compound 143] |
| 40% | O=C(CCCCN(C(=O)Nc1ccccc1)c1cccc(OCCN2CCOCC2)c1)N(CCc1ccccc1)Cc1ccccc1 [compound 5] |
| 34% | O=C(C1CC=CCC1C(=O)N(Cc1ccc(F)cc1)c1cccc(OCCN2CCOCC2)c1)N(CCc1ccccc1)Cc1ccccc1 (centres unmarked) [compound 155] |
| 22% | Cc1ccc(S(=O)(=O)N(CCCCC(=O)N(Cc2ccccc2)Cc2ccccc2)c2cccc(OCCN3CCOCC3)c2)cc1 [compound 27] |
| 42% | O=C(CCC(=O)N(Cc1ccc(C(F)(F)F)cc1)c1cccc(OCCN2CCOCC2)c1)N(CCc1ccccc1)Cc1ccccc1 [compound 167] |
| 5% | CN(Cc1ccccc1)C(=O)CCCCN(C(=O)Nc1ccccc1)c1cccc(OCCN2CCOCC2)c1 [compound 19] |
| 25% | CCN(Cc1ccccc1)C(=O)CCCCN(C(=O)c1ccc(F)cc1)c1cccc(OCCN2CCOCC2)c1 [compound 14] |
| 23% | CN(Cc1ccccc1)C(=O)CCCCN(C(=O)c1ccc(F)cc1)c1cccc(OCCN2CCOCC2)c1 [compound 22] |
| 16% | CCN(Cc1ccc(C)cc1)C(=O)CCCN(C(=O)c1ccc(F)cc1)c1cccc(OCCN2CCOCC2)c1 [compound 33] |
| 34% | Cc1ccc(C(=O)N(CCCCC(=O)N(C)Cc2ccccc2)c2cccc(OCCN3CCOCC3)c2)cc1 [compound 21] |

Same assay, conditions: rabbit colon membranes; 125I porcine motilin binding

| % Inh (Rabbit colon) | SMILES |
| --- | --- |
| 28% | O=C(Nc1ccccc1)N(CC1CCCC(NCc2cccc(Cl)c2)C1)c1cccc(OCCN2CCOCC2)c1 (centres unmarked) [compound 85] |

Same assay, conditions: rabbit colon membranes; read-out: Rabbit Colon % Inh

| inhibition | SMILES |
| --- | --- |
| 70% | O=C(c1ccc(F)cc1)N(CC1CCCC(N(Cc2ccccc2)C(=O)C(c2ccccc2)c2ccccc2)C1)c1cccc(OCCN2CCOCC2)c1 (centres unmarked) [compound 112] |
| 61% | COc1ccc(CCN(Cc2cccc(Cl)c2)C(=O)CCCN(C(=O)c2ccc(F)cc2)c2cccc(OCCN3CCOCC3)c2)cc1 [compound 147] |
| 15% | O=C(Nc1ccccc1)N(CC1CCCC(N(Cc2ccccc2)S(=O)(=O)c2ccc3ccccc3c2)C1)c1cccc(OCCN2CCOCC2)c1 (centres unmarked) [compound 57] |
| 100% | COc1cccc(CN(Cc2cccc(Cl)c2)C(=O)CCCC(=O)N(Cc2ccc(F)cc2)c2cccc(OCCN3CCCC3)c2)c1 [compound 198] |
| 74% | O=C(Nc1ccccc1)N(CC1CCCC(N(Cc2ccccc2)C(=O)CCc2ccccc2)C1)c1cccc(OCCN2CCOCC2)c1 (centres unmarked) [compound 43] |
| 86% | O=C(c1ccc(F)cc1)N(CC1CCCC(N(Cc2cccc(Cl)c2)C(=O)Cc2cccs2)C1)c1cccc(OCCN2CCOCC2)c1 (centres unmarked) [compound 248] |
| 64% | O=C(c1ccc(F)cc1)N(CC1CCCC(N(Cc2ccccc2)C(=O)C(Cl)(Cl)Cl)C1)c1cccc(OCCN2CCOCC2)c1 (centres unmarked) [compound 122] |

Same assay, conditions: rabbit colon membranes; read-out: Rabbit Colon IC50

| IC50 | SMILES |
| --- | --- |
| 480 nM | O=C(c1ccc(F)cc1)N(CC1CCCC(N(Cc2ccccc2)C(=O)C(c2ccccc2)c2ccccc2)C1)c1cccc(OCCN2CCOCC2)c1 (centres unmarked) [compound 112] |
| 490 nM | COc1ccc(CCN(Cc2cccc(Cl)c2)C(=O)CCCN(C(=O)c2ccc(F)cc2)c2cccc(OCCN3CCOCC3)c2)cc1 [compound 147] |
| 650 nM | COc1cccc(C(=O)N(Cc2cccc(Cl)c2)C2CCCC(CN(C(=O)Nc3ccccc3)c3cccc(OCCN4CCOCC4)c3)C2)c1 (centres unmarked) [compound 51] |
| 107 nM | COc1cccc(CN(Cc2cccc(Cl)c2)C(=O)CCCC(=O)N(Cc2ccc(F)cc2)c2cccc(OCCN3CCCC3)c2)c1 [compound 198] |
| 730 nM | O=C(Nc1ccccc1)N(CC1CCCC(N(Cc2ccccc2)C(=O)CCc2ccccc2)C1)c1cccc(OCCN2CCOCC2)c1 (centres unmarked) [compound 43] |
| 760 nM | O=C(c1ccc(F)cc1)N(CC1CCCC(N(Cc2cccc(Cl)c2)C(=O)Cc2cccs2)C1)c1cccc(OCCN2CCOCC2)c1 (centres unmarked) [compound 248] |
| 840 nM | O=C(c1ccc(F)cc1)N(CC1CCCC(N(Cc2ccccc2)C(=O)C(Cl)(Cl)Cl)C1)c1cccc(OCCN2CCOCC2)c1 (centres unmarked) [compound 122] |
